These are literature values, as cited in PubChem BioAssay AID1259409 (Chemical Carcinogenesis Research Information System (CCRIS), 2018).

Molecules are shown by their SMILES.

The series relates to rodent chemically induced tumor inhibition, incidence and multiplicity. The experiment in a line: CCRIS tumor inhibitor studies. As to conditions: Dose [Inhibitor]: 0, Promoter: NONE USED.

In the case of `CCC1(c2ccccc2)C(=O)NC(=O)NC1=O`, the “tumour outcome (control, treated, inhibition, significance)” value (Carcinogen: DIETHYLNITROSAMINE, 55-18-5, 80 MG/KG 1/D FOR 3 D PRIOR TO EACH CARCINOGEN DOSE (STUDY DURATION: 6 MO), Route [Inhibitor]: INTRAPERITONEAL, Species: RAT, Strain/Sex: BD6/FEMALE, Target Tissue: Type of Lesion: ESOPHAGUS: TUMOR, Dose [Carcinogen]: 80 MG/KG BW 1/WK FOR 8 WK) is on record as 18%, 0%, 100%, not significant; the “tumour outcome (control, treated, inhibition, significance)” value (Carcinogen: DIETHYLNITROSAMINE, 55-18-5, 80 MG/KG 1/D FOR 3 D PRIOR TO EACH CARCINOGEN DOSE (STUDY DURATION: 6 MO), Route [Inhibitor]: INTRAPERITONEAL, Species: RAT, Strain/Sex: BD6/FEMALE, Target Tissue: Type of Lesion: LIVER: TUMOR, Dose [Carcinogen]: 80 MG/KG BW 1/WK FOR 8 WK) was 82%, 100%, -18%, not significant; the “tumour outcome (control, treated, inhibition, significance)” value (Carcinogen: N-ETHYL-N-NITROSOUREA, 759-73-9, 0.05% IN DRINKING WATER BEGINNING 4 WK POST CARCINOGEN AND CONTINUING FOR STUDY DURATION (STUDY DURATION: 52 WK), Route [Inhibitor]: ORAL, Species: RAT, Strain/Sex: WF/FEMALE, Target Tissue: Type of Lesion: BRAIN: GLIOMA, Dose [Carcinogen]: 5 MG ONCE AT 24 HR OF AGE) was 7/13 (54%), 1/12 (8%), 85%, p<.05; the “tumour outcome (control, treated, inhibition, significance)” value (Carcinogen: N-ETHYL-N-NITROSOUREA, 759-73-9, 0.05% IN DRINKING WATER BEGINNING 4 WK POST CARCINOGEN AND CONTINUING FOR STUDY DURATION (STUDY DURATION: 52 WK), Route [Inhibitor]: ORAL, Species: RAT, Strain/Sex: WF/MALE, Target Tissue: Type of Lesion: BRAIN: GLIOMA, Dose [Carcinogen]: 5 MG ONCE AT 24 HR OF AGE) is listed as 3/13 (23%), 1/10 (10%), 56%, not significant; the “tumour outcome (control, treated, inhibition, significance)” value (Carcinogen: N-ETHYL-N-NITROSOUREA, 759-73-9, 0.05% IN DRINKING WATER BEGINNING 4 WK POST CARCINOGEN AND CONTINUING FOR STUDY DURATION (STUDY DURATION: 52 WK), Route [Inhibitor]: ORAL, Species: RAT, Strain/Sex: WF/MALE, Target Tissue: Type of Lesion: MENINGES: TUMOR, Dose [Carcinogen]: 5 MG ONCE AT 24 HR OF AGE) was 1/13 (8%), 0/10 (0%), 100%, not calculated; the “tumour outcome (control, treated, inhibition, significance)” value (Carcinogen: N-METHYL-N-NITROSOUREA, 684-93-5, 0.05% IN DIET BEGINNING POST CARCINOGEN TREATMENT AND CONTINUING FOR 23 WK (STUDY DURATION: 25 WK), Route [Inhibitor]: ORAL, Species: RAT, Strain/Sex: F344/MALE, Target Tissue: Type of Lesion: FORESTOMACH: PAPILLOMA, Dose [Carcinogen]: 50 MG/KG 4/2 WK) is on record as 8/17 (47%), 12/18 (67%), -43%, not calculated. Moreover, the “tumour outcome (control, treated, inhibition, significance)” value runs as follows: (Carcinogen: N-METHYL-N-NITROSOUREA, 684-93-5, 0.05% IN DIET BEGINNING POST CARCINOGEN TREATMENT AND CONTINUING FOR 23 WK (STUDY DURATION: 25 WK), Route [Inhibitor]: ORAL, Species: RAT, Strain/Sex: F344/MALE, Target Tissue: Type of Lesion: FORESTOMACH: SQUAMOUS CELL CARCINOMA, Dose [Carcinogen]: 50 MG/KG 4/2 WK) 2/17 (12%), 9/18 (50%), -316%, not calculated; (Carcinogen: N-METHYL-N-NITROSOUREA, 684-93-5, 0.05% IN DIET BEGINNING POST CARCINOGEN TREATMENT AND CONTINUING FOR 23 WK (STUDY DURATION: 25 WK), Route [Inhibitor]: ORAL, Species: RAT, Strain/Sex: F344/MALE, Target Tissue: Type of Lesion: HEMATOPOIETIC SYSTEM: LYMPHOMA OR LEUKEMIA, Dose [Carcinogen]: 50 MG/KG 4/2 WK) 3/17 (18%), 5/18 (28%), -56%, not calculated; (Carcinogen: N-METHYL-N-NITROSOUREA, 684-93-5, 0.05% IN DIET BEGINNING POST CARCINOGEN TREATMENT AND CONTINUING FOR 23 WK (STUDY DURATION: 25 WK), Route [Inhibitor]: ORAL, Species: RAT, Strain/Sex: F344/MALE, Target Tissue: Type of Lesion: SMALL INTESTINE: ADENOCARCINOMA, Dose [Carcinogen]: 50 MG/KG 4/2 WK) 9/17 (53%), 6/18 (33%), 38%, not calculated; (Carcinogen: N-METHYL-N-NITROSOUREA, 684-93-5, 0.05% IN DIET BEGINNING POST CARCINOGEN TREATMENT AND CONTINUING FOR 23 WK (STUDY DURATION: 25 WK), Route [Inhibitor]: ORAL, Species: RAT, Strain/Sex: F344/MALE, Target Tissue: Type of Lesion: SMALL INTESTINE: ADENOMA, Dose [Carcinogen]: 50 MG/KG 4/2 WK) 10/17 (59%), 15/18 (83%), -41%, not calculated; (Carcinogen: N-METHYL-N-NITROSOUREA, 684-93-5, 0.05% IN DIET BEGINNING POST CARCINOGEN TREATMENT AND CONTINUING FOR 23 WK (STUDY DURATION: 25 WK), Route [Inhibitor]: ORAL, Species: RAT, Strain/Sex: F344/MALE, Target Tissue: Type of Lesion: THYROID: ADENOCARCINOMA, Dose [Carcinogen]: 50 MG/KG 4/2 WK) 1/17 (6%), 6/18 (33%), -450%, not calculated; (Carcinogen: N-METHYL-N-NITROSOUREA, 684-93-5, 0.05% IN DIET BEGINNING POST CARCINOGEN TREATMENT AND CONTINUING FOR 23 WK (STUDY DURATION: 25 WK), Route [Inhibitor]: ORAL, Species: RAT, Strain/Sex: F344/MALE, Target Tissue: Type of Lesion: THYROID: ADENOMA, Dose [Carcinogen]: 50 MG/KG 4/2 WK) 3/17 (18%), 16/18 (89%), -394%, not calculated. In addition, the “tumour outcome (control, treated, inhibition, significance)” value was 2/17 (12%), 2/18 (11%), 8%, not calculated (Carcinogen: N-METHYL-N-NITROSOUREA, 684-93-5, 0.05% IN DIET BEGINNING POST CARCINOGEN TREATMENT AND CONTINUING FOR 23 WK (STUDY DURATION: 25 WK), Route [Inhibitor]: ORAL, Species: RAT, Strain/Sex: F344/MALE, Target Tissue: Type of Lesion: TONGUE: PAPILLOMA, Dose [Carcinogen]: 50 MG/KG 4/2 WK); 2/17 (12%), 3/18 (17%), -42%, not calculated (Carcinogen: N-METHYL-N-NITROSOUREA, 684-93-5, 0.05% IN DIET BEGINNING POST CARCINOGEN TREATMENT AND CONTINUING FOR 23 WK (STUDY DURATION: 25 WK), Route [Inhibitor]: ORAL, Species: RAT, Strain/Sex: F344/MALE, Target Tissue: Type of Lesion: TONGUE: SQUAMOUS CELL CARCINOMA, Dose [Carcinogen]: 50 MG/KG 4/2 WK); 2/17 (12%), 1/18 (6%), 50%, not calculated (Carcinogen: N-METHYL-N-NITROSOUREA, 684-93-5, 0.05% IN DIET BEGINNING POST CARCINOGEN TREATMENT AND CONTINUING FOR 23 WK (STUDY DURATION: 25 WK), Route [Inhibitor]: ORAL, Species: RAT, Strain/Sex: F344/MALE, Target Tissue: Type of Lesion: URINARY BLADDER: PAPILLOMA, Dose [Carcinogen]: 50 MG/KG 4/2 WK); 2/15 (13%), 1/15 (7%), 46%, p<0.05 (0.05% IN DIET FOR 13 WK AFTER WEANING (STUDY DURATION: 13 WK), Route [Inhibitor]: ORAL, Species: MOUSE, Strain/Sex: DDK/FEMALE, Target Tissue: Type of Lesion: LIVER: TUMOR, Dose [Carcinogen]: 40 MG/KG ADMINISTERED TO MOTHERS ON DAY 14 OF GESTATION); 2/15 (13%), 1/7 (6%), 54%, p<0.05 (0.05% IN DIET FOR 13 WK AFTER WEANING (STUDY DURATION: 13 WK), Route [Inhibitor]: ORAL, Species: MOUSE, Strain/Sex: DDK/MALE, Target Tissue: Type of Lesion: LIVER: TUMOR, Dose [Carcinogen]: 40 MG/KG ADMINISTERED INTRAPERITONEALLY TO MOTHERS ON DAY 14 OF GESTATION); 8/15 (53%), 0/18 (0%), 100%, not calculated (0.05% IN DIET FOR 25 WK AFTER WEANING (STUDY DURATION: 25 WK), Route [Inhibitor]: ORAL, Species: MOUSE, Strain/Sex: DDK/MALE, Target Tissue: Type of Lesion: LIVER: TUMOR, Dose [Carcinogen]: 40 MG/KG ADMINISTERED TO MOTHERS ON DAY 14 OF GESTATION).
